Results as given in patent US8993606B2, “Oral formulations for treating metal overload” (FerroKin BioSciences, Inc., priority 2011, dated 2015).
Where two headings read alike, the source gives them in different places.

Legend:
[1] = Example 6: multiple-dose study in iron-overloaded human subjects (PK); format: in vivo; conditions: for half-life / Tmax / CL renal / Cmax / AUC(0-t) / Vd/F: both sexes, human, plasma; for AUC(0-t): read-out: AUC(0 - 24); for Vd/F: read-out: Vz/F
From the text: Example 6 was a multiple-dose, escalating study in iron-overloaded subjects conducted at 5 centers in the US, Australia, and Thailand.
Men and women at least 18 years of age qualified to participate if they were able to voluntarily give consent and had transfusional overload requiring treatment with an iron chelator and were willing to discontinue their chelation for a period of at least 5 days prior to screening and during the study for a total of up to 35 days. […] The mean of each subject's last 3 pre-transfusion hemoglobin levels (prior to screening) was ≧7.5 g/dL and their serum ferritin was >400 ng/mL. Subjects also agreed to use an approved method of contraception during the study.
The study enrolled 20 subjects with the following primary diagnoses requiring chronic transfusions:
• 2 β-thalassemia major • 2 sickle cell anemia Cohort 2 (8 mg/kg): • 1α-thalassemia major (α°/α°) • 2 β-thalassemia major • 1 congenital dyserythropoietic anemia Cohort 3 (16 mg/kg): • 4 β-thalassemia major Cohort 4 (32 mg/kg): • 1 α-thalassemia major)(α°/α° • 2 β-thalassemia/hemoglobin E • 1 sickle cell anemia Cohort 5 (40 mg/kg): • 2 β-thalassemia major • 2 β-thalassemia/hemoglobin E

[2] = Example 7: high single doses in healthy human subjects (PK); format: in vivo; conditions: fasted; for CL renal / AUC(0-inf) / Cmax / Tmax / Vd/F / half-life: both sexes, human; for CL renal: plasma and urine; for AUC(0-inf) / Cmax / Tmax / Vd/F / half-life: plasma; for Vd/F: read-out: Vz/F; for half-life: read-out: t½ (converted)
Experimental: Subjects were male and female healthy human volunteers aged between 18 and 50 years, free from clinically significant illness or disease as determined by their medical/surgical history, physical examination etc., and having a serum ferritin>20 ng/mL. Subjects were given, in the fasted state, either 30, 40, 50, or 60 mg/kg Compound 1 as a blended formulation of 96% (wt/wt) drug substance (powder) with 3% (wt/wt) croscarmellose sodium and 1% (wt/wt) magnesium stearate dispensed in hard gelatin capsules in strengths of 50 mg, 100 mg, 250 mg, and 375 mg.
The 30 and 50 mg/kg dose groups each contained seven subjects; data from only four of these subjects was used to calculate AUCinf, t½, CL/F, and VZ/F. The 40 and 60 mg/kg dose groups each contained three subjects; data from only three of these subjects was used to calculate AUCinf, t½, CL/F, and VZ/F.
Blood samples of approximately 7 mL were drawn via cannula at 0.25, 0.5, 0.75, 1, 1.25, 1.5, 2, 2.5, 4, 8, 12 and 24 hours post-dose, for pharmacokinetic analysis. (See FIG. 2.) Urine was collected over the time periods 0-4, 4-8, 8-12 and 12-24 hours post-dose for pharmacokinetic and pharmacodynamic assessment.
PK plasma and PK urine samples were assayed by a validated LC/MS/MS method, specific for the determination of Compound 1. Pharmacokinetic parameters for Compound 1 will be calculated using non-compartmental analysis. Only plasma and urine concentrations greater than the lower limits of quantitation (LOQ, 5 ng/mL in plasma and urine) for the assays will be used in the pharmacokinetic analysis.

[3] = test system: iron-overloaded subjects; test: Safety: multiple-dose study in iron-overloaded subjects; format: in vivo, human
Experimental: Twenty iron-overloaded subjects were enrolled and completed the study. Four subjects in each cohort were orally administered 3, 8, 16, or 32 or 40 mg/kg/day of Compound 1 for 7 consecutive days.

[4] = 3 mg/kg/day, 7 days oral, N = 4
[5] = 8 mg/kg/day, 7 days oral, N = 4
[6] = 16 mg/kg/day, 7 days oral, N = 4
[7] = 32 mg/kg/day, 7 days oral, N = 2
[8] = 32 mg/kg/day, 7 days oral, N = 4
[9] = 40 mg/kg/day, 7 days oral, N = 4

Structure (SMILES): COCCOCCOCCOc1cccc(C2=N[C@@](C)(C(=O)O)CS2)c1O [Compound 1, (S)-4,5-Dihydro-2-[2-hydroxy-3-(3,6,9-trioxadecyloxy)phenyl]-4-methyl-4-thiazolecarboxylate magnesium hydroxide]
- CL/F [1, 4]: 162 ± 85.0 mL/min
- Fe(0-24) [1, 4]: 44.0 ± 16.0 % oral dose
- Ue(0-24) [1, 4]: 66.1 ± 24.0 mg
- λz [1, 4]: 0.0655 ± 0.0606 h⁻¹
- CL/F [1, 5]: 225 ± 142 mL/min
- Fe(0-24) [1, 5]: 47.2 ± 13.8 % oral dose
- Ue(0-24) [1, 5]: 201 ± 68.1 mg
- λz [1, 5]: 0.0424 ± 0.0249 h⁻¹
- CL/F [1, 6]: 206 ± 78.4 mL/min
- Fe(0-24) [1, 6]: 39.2 ± 5.86 % oral dose
- Ue(0-24) [1, 6]: 402 ± 103 mg
- λz [1, 6]: 0.0421 ± 0.0246 h⁻¹
- λz [1, 7]: 0.0381 ± 0.0091^a hr^−1
- CL/F [1, 8]: 172 ± 60.1 mL/min
- Fe(0-24) [1, 8]: 43.1 ± 15.8 % oral dose
- Ue(0-24) [1, 8]: 641 ± 208 mg
- CL/F [1, 9]: 223 ± 23.6 mL/min
- Fe(0-24) [1, 9]: 48.4 ± 14.0 % oral dose
- Ue(0-24) [1, 9]: 905 ± 247 mg
- λz [1, 9]: 0.0544 ± 0.0071 h⁻¹
- time of maximum plasma concentrations, mean ([1]; after 7 days of daily dosing): 1.24 h
- time of maximum plasma concentrations, range ([1]; after 7 days of daily dosing, 3-40 mg/kg/day): 1.0 to 1.49 h
- half-life ([1]; oral, across 5 cohorts, read-out: mean t1/2, range): 12.9 to 21.3 h
- Tmax ([1]; oral, across 5 cohorts, read-out: median values for tmax, range): 1 to 1.49 h
- CL renal [1, 4]: 75.2 ± 46.8 mL/min
- Cmax [1, 4]: 5.91 ± 2.3 µg/mL
- AUC(0-t) [1, 4]: 19.5 ± 11.3 µg·h/mL
- half-life ([1]; 3 mg/kg/day, 7 days oral, N = 4, read-out: T1/2 (converted)): 16.2 ± 8.32 h
- Vd/F [1, 4]: 185 ± 84.1 L
- Tmax ([1]; 3 mg/kg/day, 7 days oral, median, read-out: tmax): 1.31 h
- CL renal [1, 5]: 105 ± 62.9 mL/min
- Cmax [1, 5]: 15 ± 4.44 µg/mL
- AUC(0-t) [1, 5]: 44.9 ± 30.8 µg·h/mL
- half-life ([1]; 8 mg/kg/day, 7 days oral, N = 4, read-out: T1/2 (converted)): 20.9 ± 11.3 h
- Vd/F [1, 5]: 311 ± 137 L
- Tmax ([1]; 8 mg/kg/day, 7 days oral, median, read-out: tmax): 1.18 h
- CL renal [1, 6]: 83.2 ± 3600 mL/min
- Cmax [1, 6]: 38.2 ± 3.95 µg/mL
- AUC(0-t) [1, 6]: 92.3 ± 36.6 µg·h/mL
- half-life ([1]; 16 mg/kg/day, 7 days oral, N = 4, read-out: T1/2 (converted)): 21.3 ± 11.8 h
- Vd/F [1, 6]: 339 ± 166 L
- Tmax ([1]; 16 mg/kg/day, 7 days oral, median, read-out: tmax): 1 h
- half-life ([1]; 32 mg/kg/day, 7 days oral, N = 2, read-out: T1/2 (converted)): 18.7 h
- Vd/F [1, 7]: 214 L
- CL renal [1, 8]: 73.6 ± 37.8 mL/min
- Cmax [1, 8]: 68.2 ± 27.5 µg/mL
- AUC(0-t) [1, 8]: 158 ± 43.5 µg·h/mL
- Tmax ([1]; 32 mg/kg/day, 7 days oral, median, read-out: tmax): 1.49 h
- CL renal [1, 9]: 107 ± 26.2 mL/min
- Cmax [1, 9]: 68.6 ± 11 µg/mL
- AUC(0-t) [1, 9]: 141 ± 8.07 µg·h/mL
- half-life ([1]; 40 mg/kg/day, 7 days oral, N = 4, read-out: T1/2 (converted)): 12.9 ± 1.68 h
- Vd/F [1, 9]: 249 ± 40.4 L
- Tmax ([1]; 40 mg/kg/day, 7 days oral, median, read-out: tmax): 1.26 h
- CL renal ([2]; single oral dose 30 mg/kg): 139 ± 13.2 mL/min
- CL renal ([2]; single oral dose 40 mg/kg): 152 ± 18 mL/min
- CL renal ([2]; single oral dose 50 mg/kg): 103 ± 16.2 mL/min
- CL renal ([2]; single oral dose 60 mg/kg): 146 ± 34.4 mL/min
- AUC(0-inf) ([2]; single oral dose 30 mg/kg): 161 ± 24.1 µg·h/mL
- Cmax ([2]; single oral dose 30 mg/kg): 68.2 ± 17.5 µg/mL
- Tmax ([2]; single oral dose 30 mg/kg): 1 h
- Vd/F ([2]; single oral dose 30 mg/kg): 248 ± 58.8 L
- half-life ([2]; single oral dose 30 mg/kg): 12.1 ± 3.05 h
- AUC(0-inf) ([2]; single oral dose 40 mg/kg): 195 ± 67.3 µg·h/mL
- Cmax ([2]; single oral dose 40 mg/kg): 87.9 ± 15 µg/mL
- Tmax ([2]; single oral dose 40 mg/kg): 1.38 h
- Vd/F ([2]; single oral dose 40 mg/kg): 542 ± 657 L
- half-life ([2]; single oral dose 40 mg/kg): 18.6 ± 19.2 h
- AUC(0-inf) ([2]; single oral dose 50 mg/kg): 236 ± 58.3 µg·h/mL
- Cmax ([2]; single oral dose 50 mg/kg): 91.7 ± 18.8 µg/mL
- Tmax ([2]; single oral dose 50 mg/kg): 1.5 h
- Vd/F ([2]; single oral dose 50 mg/kg): 338 ± 272 L
- half-life ([2]; single oral dose 50 mg/kg): 12.8 ± 7.66 h
- AUC(0-inf) ([2]; single oral dose 60 mg/kg): 227 ± 44.7 µg·h/mL
- Cmax ([2]; single oral dose 60 mg/kg): 104 ± 36.7 µg/mL
- Tmax ([2]; single oral dose 60 mg/kg): 1.25 h
- Vd/F ([2]; single oral dose 60 mg/kg): 285 ± 159 L
- half-life ([2]; single oral dose 60 mg/kg): 8.44 ± 3.83 h
- CL/F ([2]; single oral dose 30 mg/kg): 239 ± 17.2 mL/min
- CL/F ([2]; single oral dose 40 mg/kg): 290 ± 73.8 mL/min
- CL/F ([2]; single oral dose 50 mg/kg): 286 ± 56.1 mL/min
- CL/F ([2]; single oral dose 60 mg/kg): 381 ± 55.8 mL/min
- TEAE QT prolonged ([3]; 1 subject): 5%
- TEAE abdominal pain upper ([3]; 1 subject): 5%
- TEAE blood urine present ([3]; 1 subject): 5%
- TEAE chromaturia ([3]; 1 subject): 5%
- TEAE dizziness ([3]; 1 subject): 5%
- TEAE feeling hot ([3]; 1 subject): 5%
- TEAE pruritus ([3]; 1 subject): 5%
- TEAE tachycardia ([3]; 1 subject): 5%
- TEAE flatulence ([3]; 2 subjects): 10%
- tolerability ([3]; 3, 8, 16, 32 or 40 mg/kg/day for 7 consecutive days): generally well tolerated
- TEAE headache ([3]; 5 subjects): 25%
- TEAE urine color abnormal ([3]; 8 subjects, related to study drug): 40%
- subjects with at least 1 TEAE ([3]; 20 subjects, majority mild and unrelated to study drug): 90%
- QTcB interval prolongation ([3]; one subject, Day 7 of treatment, not observed with QTcF): 20 ms
- SAE recorded ([3]; subject at 3 mg/kg/day, sickle cell crisis, not related to treatment): 1 SAE
